# Structures can show the parent of a compound that is named as a salt.
# Experiment: in vitro
# Conditions: rat, gh3-tre-luc cells, AC50 (uM) modified / 1000
row,SMILES,CC50 at 24 h
1,"CCC(=O)O[C@H]1[C@@H](N2CCCCC2)C[C@H]2[C@@H]3CC[C@H]4C[C@H](OC(C)=O)[C@@H](N5CCCCC5)C[C@]4(C)[C@H]3CC[C@@]21C [(2beta,3alpha,5alpha,16beta,17beta)-3-Acetoxy-2,16-di(1-piperidinyl)androstan-17-yl propionate]",> 50 µM
2,"O=C1OC(=O)c2cc(-c3ccc4c(c3)C(=O)OC4=O)ccc21 [5,5'-Bi-2-benzofuran-1,1',3,3'-tetrone]",> 90 µM
3,CCOc1cc(OCC)c(C(=O)CCC(=O)O)cc1OCC [Trepibutone],> 50 µM
4,CCNCC(O)c1cccc(O)c1 (stereo not drawn) [Etilefrine hydrochloride],> 20 µM
5,C=CCCCCCCCCCCCCCC [1-Hexadecene],> 20 µM
6,CN1CCC[C@@H]1Cc1c[nH]c2ccc(CCS(=O)(=O)c3ccccc3)cc12 [Eletriptan],21.1 µM
7,Cc1nc(C)c(C)nc1C [Tetramethylpyrazine],> 90 µM
8,COc1ccc2c(c1)OC(C)(C)C(c1ccccc1)C2c1ccc(OCCN2CCCC2)cc1 (stereo not drawn) [Ormeloxifene],6.42 µM
9,O=S(=O)(O)CCCN1CCOCC1 [4-Morpholinepropanesulfonic acid],> 90 µM
10,CC1(C2CCC3(C)OC3C2)CO1 (stereo not drawn) [Limonene dioxide],> 90 µM
11,C=CC(=O)OCCOc1ccccc1 [2-Phenoxyethyl acrylate],> 90 µM
12,Nc1cc(Cl)cc(S(=O)(=O)O)c1O [6-Amino-4-chloro-1-phenol-2-sulfonic acid],> 90 µM
13,CCCN(CC)CC1COC2(CCC(C(C)(C)C)CC2)O1 (stereo not drawn) [Spiroxamine],> 90 µM
14,C=C1CC[C@H](O)C/C1=C/C=C1\CCC[C@]2(C)[C@@H]([C@H](C)CCCC(C)(C)O)CC[C@@H]12 [Calcifediol],11.5 µM
15,COc1cccc2sc(N)nc12 [2-Amino-4-methoxybenzothiazole],> 90 µM
16,CCCCCCCCSCCO [2-Hydroxyethyl octyl sulfide],> 90 µM
17,"C/C=C\C/C=C/CCCCCCCCOC(C)=O [(9E,12Z)-9,12-Tetradecadien-1-ol acetate]",> 90 µM
18,Nc1ccc2c(O)cc(S(=O)(=O)O)cc2c1 [7-Amino-4-hydroxynaphthalene-2-sulfonic acid],89.3 µM
19,CC(=O)c1c(C)c([N+](=O)[O-])c(C(C)(C)C)c([N+](=O)[O-])c1C [Musk ketone],80.9 µM
20,C[C@H](O)[C@H]1CC[C@H]2[C@@H]3CC[C@@H]4C[C@H](O)CC[C@]4(C)[C@H]3CC[C@]12C [Pregnandiol],> 50 µM
21,CC(C)=C1CC[C@@H](C)CC1=O [R-(+)-Pulegone],> 90 µM
22,CC1=CC[C@@H](C(C)(C)O)CC1 [alpha-Terpineol],> 90 µM
23,Cc1[nH]nc2c1N=C(c1ccccc1Cl)c1cc([N+](=O)[O-])ccc1N2 [PharmaGSID_48505],39.4 µM
24,CCCCCC/C=C/C(=O)OC [Methyl (2E)-2-nonenoate],> 90 µM
25,CC(=O)N(O)CCCCCNC(=O)CCC(=O)N(O)CCCCCNC(=O)CCC(=O)N(O)CCCCCN [Deferoxamine mesylate],> 20 µM
26,NC(=O)c1cnccn1 [Pyrazinamide],> 90 µM
27,O=P(O)(O)OC[C@H](O)CO [sn-Glycerol 3-phosphate bis(cyclohexylammonium)],> 50 µM
28,CC(=O)OC1CN2CCC1CC2 (stereo not drawn) [Aceclidine],> 50 µM
29,N[C@H](C(=O)O)c1ccc(O)cc1 [Oxfenicine],> 50 µM
30,CC1(C)O[C@@H]2C[C@H]3[C@@H]4CCC5=CC(=O)CC[C@]5(C)[C@@]4(F)[C@@H](O)C[C@]3(C)[C@]2(C(=O)CCl)O1 [Halcinonide],> 20 µM

# Same assay, conditions: rat, gh3-tre-luc cells, AC50 (uM) modified / 1000, Tox21_110001=Tox21_111947; viability, 1 nM T3 present, 24 h
row,SMILES,CC50 at 24 h
1,CC(C)(C)OC(=O)c1ncn2c1[C@@H]1CCCN1C(=O)c1c(Br)cccc1-2 [Bretazenil],> 50 µM

# Same assay, conditions: rat, gh3-tre-luc cells, AC50 (uM) modified / 1000, Tox21_110001=Tox21_201254; viability, 1 nM T3 present, 24 h
row,SMILES,CC50 at 24 h
1,O=P(OCCCl)(OCCCl)OCCCl [Tris(2-chloroethyl) phosphate],> 90 µM

# Same assay, conditions: rat, gh3-tre-luc cells, AC50 (uM) modified / 1000, Tox21_110001=Tox21_301190; viability, 1 nM T3 present, 24 h
row,SMILES,CC50 at 24 h
1,O=S(=O)(c1ccccc1)c1ccccc1 [Diphenylsulfone],> 90 µM

# — article PMC6792352, “Limited Chemical Structural Diversity Found to Modulate Thyroid Hormone Receptor in the Tox21 Chemical Library” (Environmental Health Perspectives, 2019)
